# Test results: patent US20040152672A1, “Indole compounds useful for the treatment of cancer” (priority 2000, published 2004)
# Read-outs that look alike come from different tables or passages of the source. Residues, ends and D or L forms follow the SMILES beside them. *: point of attachment. Cbz = O=C(OCc1ccccc1)*; CH2F = FC*
# What was measured:
# [1] = in vivo
# [2] = system: adjuvant polyarthritis; conditions: reduction in paw volume of rats with adjuvant polyarthritis, prostaglandin synthetase inhibitory activity; Demerson et al.; cited from earlier work
# [3] = cited from earlier work
# [4] = system: Mcl-1; experiment: Mcl-1 level in LNCaP cells by SDS-PAGE immunoblot; conditions: for effect on the etodolac-induced fall in Mcl-1 levels: co- or pre-incubation with etodolac, MG-132 at 5.0 μM
# [5] = system: PC-3; experiment: Cytotoxicity by MTT assay, confirmed by FACS propidium iodide uptake
# [6] = system: LNCaP-FGC; experiment: as above
# [7] = system: Alva-31; experiment: as above
# [8] = system: OVCAR-3; experiment: as above
# [9] = system: MDA-MB-231; experiment: as above
# [10] = system: HCT-116; experiment: as above
# [11] = system: A549; experiment: as above
# [12] = target: PPAR-γ (Mus musculus, UniProt P37238); conditions: RAW264.7, 24 hours; concentrations readily achieved in human plasma; FIG. 13
# Sequence of PPAR-γ (P37238 31-505 limits assumed): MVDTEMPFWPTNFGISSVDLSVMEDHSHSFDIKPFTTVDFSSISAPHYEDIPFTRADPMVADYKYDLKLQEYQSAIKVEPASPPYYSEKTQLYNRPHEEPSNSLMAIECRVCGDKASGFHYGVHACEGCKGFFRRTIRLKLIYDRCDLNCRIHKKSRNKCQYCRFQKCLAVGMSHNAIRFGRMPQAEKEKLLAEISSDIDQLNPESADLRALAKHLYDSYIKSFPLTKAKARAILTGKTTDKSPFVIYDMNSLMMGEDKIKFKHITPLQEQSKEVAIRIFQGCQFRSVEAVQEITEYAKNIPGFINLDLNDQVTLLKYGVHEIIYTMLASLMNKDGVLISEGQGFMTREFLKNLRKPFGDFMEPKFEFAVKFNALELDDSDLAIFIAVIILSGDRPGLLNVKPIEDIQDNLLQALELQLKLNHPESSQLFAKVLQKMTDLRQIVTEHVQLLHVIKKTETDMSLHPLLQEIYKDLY
# [13] = system: Bag-1; experiment: Bag-1 level in LNCaP cells by SDS-PAGE immunoblot; conditions: for effect on the etodolac-induced fall in Bag-1 levels: co- or pre-incubation with etodolac, MG-132 at 5.0 μM
# [14] = system: CLL cells; experiment: Viability of CLL cells in culture, erythrocin B exclusion assay; type: cell-based, human; conditions: for killing of CLL cells by either drug alone: fludarabine 10 nM or etodolac 10 μM alone, 48 hours, FIG. 3
# [15] = target: MRP (Homo sapiens, UniProt P33527); conditions: WO98/18490; cited from earlier work
# Sequence of MRP (P33527 whole entry): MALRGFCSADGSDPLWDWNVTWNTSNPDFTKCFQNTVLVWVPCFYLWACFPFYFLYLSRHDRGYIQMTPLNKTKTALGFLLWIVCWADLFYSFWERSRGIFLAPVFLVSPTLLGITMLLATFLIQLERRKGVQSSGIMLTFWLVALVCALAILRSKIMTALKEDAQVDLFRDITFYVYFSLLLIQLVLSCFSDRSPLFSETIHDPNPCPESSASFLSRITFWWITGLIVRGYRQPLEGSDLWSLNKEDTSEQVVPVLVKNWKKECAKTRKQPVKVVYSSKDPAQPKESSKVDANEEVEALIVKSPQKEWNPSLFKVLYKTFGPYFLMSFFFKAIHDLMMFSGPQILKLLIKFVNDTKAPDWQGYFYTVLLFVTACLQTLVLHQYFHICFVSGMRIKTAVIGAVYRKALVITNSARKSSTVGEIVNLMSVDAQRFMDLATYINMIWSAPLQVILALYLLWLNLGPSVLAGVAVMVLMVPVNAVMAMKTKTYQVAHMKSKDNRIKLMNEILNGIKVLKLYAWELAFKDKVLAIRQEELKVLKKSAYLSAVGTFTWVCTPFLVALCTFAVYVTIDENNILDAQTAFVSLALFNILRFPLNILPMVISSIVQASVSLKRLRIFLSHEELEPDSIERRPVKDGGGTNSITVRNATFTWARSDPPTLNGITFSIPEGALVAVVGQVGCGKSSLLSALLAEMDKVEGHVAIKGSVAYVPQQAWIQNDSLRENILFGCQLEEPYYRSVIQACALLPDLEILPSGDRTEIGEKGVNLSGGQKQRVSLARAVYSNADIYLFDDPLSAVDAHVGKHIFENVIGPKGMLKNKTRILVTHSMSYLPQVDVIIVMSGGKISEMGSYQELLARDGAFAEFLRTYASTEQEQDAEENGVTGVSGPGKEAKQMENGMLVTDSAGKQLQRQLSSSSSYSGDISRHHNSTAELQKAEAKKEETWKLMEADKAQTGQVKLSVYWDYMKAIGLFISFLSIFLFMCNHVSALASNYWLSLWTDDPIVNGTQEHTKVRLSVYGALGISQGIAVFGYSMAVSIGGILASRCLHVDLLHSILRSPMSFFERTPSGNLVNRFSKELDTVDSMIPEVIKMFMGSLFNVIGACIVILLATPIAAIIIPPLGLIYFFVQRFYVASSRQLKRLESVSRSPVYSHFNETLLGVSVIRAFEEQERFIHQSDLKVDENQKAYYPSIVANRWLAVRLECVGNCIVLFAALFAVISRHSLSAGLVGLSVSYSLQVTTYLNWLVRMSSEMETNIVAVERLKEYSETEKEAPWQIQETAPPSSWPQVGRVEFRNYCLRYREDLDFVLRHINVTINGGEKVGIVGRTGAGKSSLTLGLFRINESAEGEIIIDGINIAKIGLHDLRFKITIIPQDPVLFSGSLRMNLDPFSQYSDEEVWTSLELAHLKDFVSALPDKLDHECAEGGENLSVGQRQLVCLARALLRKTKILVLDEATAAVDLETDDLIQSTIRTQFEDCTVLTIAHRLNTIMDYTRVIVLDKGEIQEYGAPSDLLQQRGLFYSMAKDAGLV
# [16] = system: prostate cancer; conditions: TRAMP mouse; Wechter et al. 2000; cited from earlier work
# [17] = system: B-cell CLL cells; conditions: Bellosillo et al., Blood 1998; cited from earlier work
# [18] = system: PC-3
# [19] = system: LNCaP-FGC
# [20] = system: Alva-31
# [21] = system: OVCAR-3
# [22] = system: MDA-MB-231
# [23] = system: HCT-116
# [24] = system: A549
# [25] = system: normal peripheral blood lymphocytes (PBL); experiment: Viability of normal PBLs, erythrocin B exclusion assay; type: cell-based, human; conditions: FIG. 1; only at this concentration
# [26] = system: normal B cells; experiment: Viability of normal B lymphocytes (anti-CD19) by DiOC6 fluorescence; type: cell-based, human; conditions: 1.0 mM etodolac, 24 hours
# Procedure: Peripheral blood lymphocytes from a normal donor were cultured with 1.0 mM etodolac for 24 hours. Then B lymphocytes were identified by staining with anti-CD19 antibody, and viability was assessed by DiOC6 fluorescence. […] When the same viability assay was run with purified CLL cells from the peripheral blood of a CLL patient, the results were different. […] More than 95% of the treated cells were malignant B lymphocytes.
# [27] = system: CLL cells; experiment: In vitro survival of CLL cells taken from patients before and after etodolac tablets; type: in vivo, human; conditions: patient two
# Procedure: Heparinized blood was taken from two patients ([…]) with CLL. Then each patient immediately took a 400 mg etodolac tablet, and a second tablet 12 hours later. After another 12 hours, a second blood specimen was obtained. The CLL cells were isolated and their survival in vitro were compared in RPMI 1640 medium containing 10% autologous plasma, as described in Example 1. The circles show CLL cells before etodolac treatment. In FIGS. 6-7, the upward pointing triangles represent CLL cell viability after etodolac treatment, wherein the cells are dispersed in medium containing the pre-treatment plasma. The downward pointing triangles are CLL cells after treatment maintained in medium with the post-treatment plasma.
# FIG. 8 is a flow cytometric analysis of CLL cells from patient two before and after etodolac treatment. […]
# To conduct the flow cytometric analysis, the mitochondrial transmembrane potential was analyzed by 3,3′ dihexyloxacarboncyanide iodide (DiOC6), cell membrane permeability by propidium iodide (PI)3 and mitochondrial respiration by dihydrorhodamine 123 (DHR) (See J. A. Royall et al., Arch. Biochem. Biophys., 302, 348 (1993)). […] Cells were analyzed within 30 minutes in a Becton Dickinson FAC-Scalibur cytofluorometer. After suitable […], fluorescence was recorded at different wavelength: DiOC6 and DHR at 525 nm (Fl-1) and PI at 600 nm (FL-3).
# [28] = system: SW260
# [29] = system: prostate cancer tissue
# From the text: The tissues were next fixed in 4% paraformaldehyde in PBS, embedded in paraffin, sectioned and stained with hematoxylin and eosin.
# [30] = system: Bcl-2 and Bax; experiment: Bcl-2 and Bax levels in LNCaP cells; conditions: etodolac incubation; data not shown
# [31] = 100 μM etodolac, as early as two hours
smiles,measurement,setting,value
CCc1cccc2c3c([nH]c12)[C@@](CC)(CC(=O)O)OCC3 [Etodolac R],maximal plasma concentration in a human subject (should yield),[1],about 400 μM
same,anti-inflammatory activity,[2],No anti-inflammatory activity was discernible
same,maximum plasma concentration,[3]; after a 200 mg dose in six elderly patients,about 33 μM
same,"plasma concentrations, fold higher than those of the S-enantiomer",[3]; after the administration of RS-etodolac,about 10 fold
same,Mcl-1 degradation by the enantiomers,[4],induced Mcl-1 degradation at equivalent concentrations
same,IC50,"[5]; read-out: IC50 cytotoxicity, PC-3 (prostate), MTT after three days continuous exposure",150 ± 15 µM
same,IC50,"[6]; read-out: IC50 cytotoxicity, LNCaP-FGC (prostate), MTT after three days continuous exposure",270 ± 50 µM
same,IC50,"[7]; read-out: IC50 cytotoxicity, Alva-31 (prostate), MTT after three days continuous exposure",> 1000 µM
same,IC50,"[8]; read-out: IC50 cytotoxicity, OVCAR-3 (ovarian), MTT after three days continuous exposure",> 1000 µM
same,IC50,"[9]; read-out: IC50 cytotoxicity, MDA-MB-231 (breast), MTT after three days continuous exposure",> 1000 µM
same,IC50,"[10]; read-out: IC50 cytotoxicity, HCT-116 (colon), MTT after three days continuous exposure",280 ± 20 µM
same,IC50,"[11]; read-out: IC50 cytotoxicity, A549 (lung), MTT after three days continuous exposure",> 1000 µM
same,activation of PPAR-γ reporter gene construct,[12],activated
CC(C)C[C@@H](C=O)NC(=O)[C@H](CC(C)C)NC(=O)[C@H](CC(C)C)NC(=O)OCc1ccccc1 [MG-132] (Cbz-Leu-Leu-Leu-aldehyde),effect on the etodolac-induced fall in Mcl-1 levels,[4],prevented
same,effect on the etodolac-induced fall in Bag-1 levels,[13],prevented
Nc1nc(F)nc2c1ncn2[C@@H]1O[C@H](CO)[C@@H](O)[C@@H]1O [fludarabine],killing of CLL cells by either drug alone,[14],ineffective
CN1C(C(=O)Nc2ccccn2)=C(O)c2ccccc2S1(=O)=O [piroxicam],increase of the potency of the anti-cancer drug,[15],inactive
C[C@@H](C(=O)O)c1ccc(-c2ccccc2)c(F)c1 [R-flurbiprofen],progression of prostate cancer,[16],inhibited progression of prostate cancer
O=C(O)c1ccccc1O [salicylate],viability of B-cell CLL cells in vitro,[17],reduced the viability
CC(=O)Oc1ccccc1C(=O)O [aspirin],viability of B-cell CLL cells in vitro,[17],reduced the viability
CC(NC(=O)C(NC(=O)OCc1ccccc1)C(C)C)C(=O)NC(CC(=O)O)C(=O)CF (stereo not drawn) [Z-VAD] (Cbz-Val-Ala-Asp-CH2F; configuration not given here),effect on the etodolac-induced fall in Mcl-1 levels,[4],did not prevent
same,effect on the etodolac-induced fall in Bag-1 levels,[13],did not prevent
CCc1cccc2c3c([nH]c12)C(CC)(CC(=O)O)OCC3 (stereo not drawn) [Etodolac S],IC50,[18],800 µM
same,IC50,[19],220 ± 20 µM
same,IC50,[20],> 1000 µM
same,IC50,[21],> 1000 µM
same,IC50,[22],> 1000 µM
same,IC50,[23],420 ± 50 µM
same,IC50,[24],> 1000 µM
same,anti-inflammatory activity,[2],almost all of the anti-inflammatory activity of the racemate
same,Mcl-1 degradation by the enantiomers,[4],induced Mcl-1 degradation at equivalent concentrations
same,activation of PPAR-γ reporter gene construct,[12],activated
COc1ccc2cc([C@H](C)C(=O)O)ccc2c1 [Naproxen],increase of the potency of the anti-cancer drug,[15],inactive
"CCc1cccc2c3c([nH]c12)C(CC)(CC(=O)O)OCC3 (stereo not drawn) [Etodolac R/S, 1,8-diethyl-1,3,4,9-tetrahydro[3,4-6]indole-1-acetic acid]",concentration at which significant death of normal PBLs occurred,[25],800 µM
same,viability of normal B cells compared to control cultures,[26],did not reduce the viability
same,CLL cells killed,"[14]; 200 μM, 48 hour exposure, FIG. 2",50%
same,killing of CLL cells by either drug alone,[14],ineffective
same,"apoptotic CLL cells (low DiOC6 staining, left lower box) after versus before treatment","[27]; flow cytometry, detectable at 12 hours, increases after 24 hours, FIG. 8",much higher after the drug
same,in vitro survival of CLL cells after treatment compared to before treatment,"[27]; two 400 mg tablets 12 hours apart, FIG. 6",shortened survival
same,IC50,[18],340 ± 20 µM
same,IC50,[19],400 ± 35 µM
same,IC50,[20],> 1000 µM
same,IC50,[21],> 1000 µM
same,IC50,[22],> 1000 µM
same,IC50,[23],450 ± 15 µM
same,IC50,[28],1000 ± 120 µM
same,Phenoty,"[28]; SW260, sensitivity of the cell line to etodolac",Resistant
same,IC50,[24],> 1000 µM
same,effect on normal basal cells in prostatectomy samples,[29],did not affect
same,elimination half-life,[3]; in vivo,6 to 8 h
same,Bcl-2 and Bax levels,[30],did not alter
same,Mcl-1 levels,[4]; [31],fell
same,Bag-1 levels,[13]; [31],fell
same,Phenoty,"[5]; PC-3, sensitivity of the cell line to etodolac",Sensitive
same,Phenoty,"[6]; LNCaP-FGC, sensitivity of the cell line to etodolac",Sensitive
same,Phenoty,"[7]; Alva-31, sensitivity of the cell line to etodolac",Resistant
same,Phenoty,"[8]; OVCAR-3, sensitivity of the cell line to etodolac",Resistant
same,Phenoty,"[9]; MDA-MB-231, sensitivity of the cell line to etodolac",Resistant
same,Phenoty,"[10]; HCT-116, sensitivity of the cell line to etodolac",Sensitive
same,Phenoty,"[11]; A549, sensitivity of the cell line to etodolac",Resistant
